Key:
[1] = low concentrations; cited from earlier work
neurons = settings: cited from earlier work
SOD1 mRNA, PC12 cells [2] = settings: Li, et al., 1995; cited from earlier work
[3] = test system: pyramidal neurons in the hippocampus (CA1 neurons); test: Hypoxia/ischaemia model, CA1 neuron survival; assay type: in vivo, rat
HSP70 = test: Kainate-induced HSP70 expression in hippocampal CA1 field; assay type: in vivo, rat
Description: (§1) The levels of both proteins were measured 24 h after a single injection of kainate (10 mg/Kg,i.p). The levels (assessed by quantitative immunohistochemical imaging) can be seen in Table 5.
(§2) Values are means ± sem (n = 5)
(§3) Kainate (10 mg/Kg, i.p.); Rats with seizures between stages IV severe to V
(§4) severe were used. R-2HPA (0.25 mg/Kg, s.c.) was administered 4 h after
(§5) kainate injection; HSP70 and c-Fos expression were assessed 24 h after
(§6) kainate treatment (for details of method please see Zhang et al, 1996).
(§7) Statistics were performed using ANOVA followed by Newman-Keuls multiple

c-Fos = test: Kainate-induced delayed c-Fos expression in hippocampal CA1 field; assay type: in vivo, rat
Description: as §1, §2, §3, §4, §5, §6, §7

[4] = molecular target: T1, rat liver mitochondrial monoamine oxidase B (Rattus norvegicus, UniProt P19643); test: biochemical; assay type: biochemical
T1 sequence (P19643 1-520): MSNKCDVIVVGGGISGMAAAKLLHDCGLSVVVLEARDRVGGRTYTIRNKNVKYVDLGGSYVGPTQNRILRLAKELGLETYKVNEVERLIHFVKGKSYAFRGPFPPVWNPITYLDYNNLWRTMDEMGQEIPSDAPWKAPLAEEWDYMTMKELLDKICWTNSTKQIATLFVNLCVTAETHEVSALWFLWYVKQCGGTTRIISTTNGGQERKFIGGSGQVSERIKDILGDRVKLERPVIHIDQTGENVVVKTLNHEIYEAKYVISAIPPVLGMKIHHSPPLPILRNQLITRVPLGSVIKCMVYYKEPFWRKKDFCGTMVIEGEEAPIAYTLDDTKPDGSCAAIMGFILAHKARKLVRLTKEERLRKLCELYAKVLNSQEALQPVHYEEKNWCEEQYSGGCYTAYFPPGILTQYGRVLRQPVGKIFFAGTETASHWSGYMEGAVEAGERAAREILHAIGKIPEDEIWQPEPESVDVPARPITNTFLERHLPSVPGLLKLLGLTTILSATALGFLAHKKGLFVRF
Description: Enzyme activity was assessed using a radiometric method as previously described (Yu et al, 1992).

mouse brain MAO-B = molecular target: T2, mouse brain MAO-B (Mus musculus, UniProt Q8BW75); test: Inhibition in vivo of brain MAO-B activity after intraperitoneal administration
T2 construct: Striata were dissected from the brain two hours after i.p. administration of the drugs; from tissue; host or cells: mouse brain striata, dissected two hours after i.p. dosing
T2 sequence (Q8BW75 1-520): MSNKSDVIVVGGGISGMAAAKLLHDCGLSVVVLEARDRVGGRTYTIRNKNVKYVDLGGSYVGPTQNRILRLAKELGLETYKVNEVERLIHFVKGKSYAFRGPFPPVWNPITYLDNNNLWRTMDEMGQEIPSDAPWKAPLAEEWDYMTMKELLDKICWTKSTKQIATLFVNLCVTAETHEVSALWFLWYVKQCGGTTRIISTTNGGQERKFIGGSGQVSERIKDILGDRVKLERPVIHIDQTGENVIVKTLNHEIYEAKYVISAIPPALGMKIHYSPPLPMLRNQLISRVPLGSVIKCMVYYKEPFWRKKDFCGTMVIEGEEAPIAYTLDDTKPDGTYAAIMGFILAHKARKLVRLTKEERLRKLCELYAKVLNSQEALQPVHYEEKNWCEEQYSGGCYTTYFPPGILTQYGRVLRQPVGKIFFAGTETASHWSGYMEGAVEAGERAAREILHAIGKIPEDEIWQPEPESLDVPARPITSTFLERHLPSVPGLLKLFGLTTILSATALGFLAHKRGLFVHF
Description: Results are the average of two independent triplicate experiments for each i.p. dose. The doses were 0.5, 1, 2, 5, 10, 20 mg/Kg. Striata were dissected from the brain two hours after i.p. administration of the drugs. MAO-B activities were then determined immediately (Yu et al 1992). The values were estimated from dose-response curves.

SOD1 mRNA, PC12 cells [5] = test: SOD1 mRNA levels in PC12 cells (Northern Blot); assay type: cell-based
Description: PC12 cells were used to study the gene regulation of SOD (copper, zinc-dependent type, i.e. SOD1) by (R)-2-heptylpropargylamine (R-2HPA).
The SOD1 mRNA levels were detected by Northern Blots using total RNA from cultured PC12 cells treated with R-2HPA for 24 hours. The blots were hybridized with SOD1 cDNA probe labelled with P^32 dCTP and the auto radiographs were scanned by a Beckman spectrometer.

LNGFR mRNA, PC12 cells = test: LNGFR mRNA levels in PC12 cells (Northern Blot); assay type: cell-based
Description: The LNGFR mRNA levels were detected by Northern Blots using total RNA from cultured PC12 cells treated with R-2HPA for 24 hours. The blots were hybridized with LNGFR cDNA probe labelled with P^32 dCTP and the auto radiographs were scanned by a Beckman spectrometer.

hippocampal CA1 neurons = test: Kainic acid-induced neuronal damage; assay type: in vivo, rat; settings: in words
in vitro = assay type: cell-based, Wistar rat; settings: rat, cerebellar granule cells
From the text: (§8) Cultures of cerebellar granule cells (CGC) can be induced into apoptosis by the addition of a high concentration of cytosine arabinoside (Ara C) (Dessi et al., 1995) and it has been shown that this is a p53 dependent apoptosis (Enokido et al, 1996). We have measured the antiapoptotic effect of N-(2-heptyl)propargylamine (2HPA) using this system and compared the results to those obtained with previously known aliphatic methyl propargylamines and deprenyl.
(§9) Cultures of CGC were obtained from 6-8 day old Wistar rat pups. Cultures were grown on glass in 35 mm petri dishes for 3 days and then used for experiments. 20 μl aliquots of drug solutions (Ara C, anti-apoptotic drugs, drug vehicles) were added to the medium of the cultures. 24 Hours later the cultures were fixed with FAM, and stained with bis-benzamide. Normal and apoptotic nuclei were counted to a total of 90-120 cells per culture. […] Concentrations in excess of 150 μM caused detachment of the cultures.
(§10) Compounds were added at the following concentrations: Ara C, 100 μM,

[6] = test system: cerebellar granule cells (CGC); test: in vitro; assay type: cell-based, Wistar rat
From the text: as §8, §9, §10

Parkinson's disease = settings: cited from earlier work
PC12 cells = settings: cited from earlier work
damaged neurons = settings: some models; cited from earlier work
Alzheimer's disease = settings: some patients; cited from earlier work
Tourette's syndrome = Tourette's syndrome patients; cited from earlier work
[7] = rodents and humans; cited from earlier work
[8] = test system: catecholaminergic neuroblastoma SH-SY5Y cells; settings: cited from earlier work
[9] = after kainate, rat hippocampal CA1 region
[10] = kainate 10 mg/Kg i.p., R-2HPA 0.25 mg/Kg s.c. 4 h after, assessed 24 h after kainate, mean ± sem (n = 5), *p < 0.01
[11] = kainate 10 mg/Kg i.p., 24 h, mean ± sem (n = 5)

For `CC(N)Cc1ccccc1` (stereo not shown) [amphetamine], the neurotoxicity [1] is given as “neurotoxic even at quite low concentrations”.

For `C#CCNC1CCc2ccccc21` (stereo not shown) [N-propargyl-1-aminoindan], the “in vitro neuronal survival after glutamate toxicity” value (neurons) is listed as “effective in enhancing the in vitro neuronal survival”.

For NGF: NGF, the “SOD1 mRNA induction (previous findings)” value (SOD1 mRNA, PC12 cells [2]) is listed as “can induce SOD1 mRNA in a dose dependent manner”.

With `C#CCN[C@H](C)CCCCC.Cl` [Example R-2HPA, (R)-N-2-Heptylpropargylamine hydrochloride] the “mean survival of CA1 neurons, percentage of vehicle treated controls (Table 2)” value ([3]; 0.1 μmol/kg, s.c., vehicle = 100%, ± sem (n = 6-10), **P < 0.01) was 320 ± 48%, the response vs control in vivo at 0.1 µmol/kg ([3]; Rattus norvegicus, Neuron, sc, 0.1 μmol/kg, s.c., vehicle = 100%, ± sem (n = 6-10), *P < 0.05, **P < 0.01, read-out: Percentage survival of CA1 neurones, of vehicle treated controls (Table 4)) was 320 ± 48% and the “potency following oral administration versus R-2HMP” value ([3]; oral) was “more potent than its aliphatic methyl propargylamine analogue, R-2HMP”. For the same compound, the “activity in the hypoxia/ischaemia model” value ([3]; s.c.) was “Most active”, the “HSP70 expression” value (HSP70; [9]) was “able to block the expression of both genes” and the “HSP70 (Kainate + compound)” value (HSP70; [10]) was 4.6 ± 2.0. The “delayed c-Fos expression” value (c-Fos; [9]) was “able to block the expression of both genes”, the “Delayed c-Fos (Kainate + compound)” value (c-Fos; [10]) was 4.5 ± 3.7 and the “Comparison to most effective MAO-B inhibitor in group” value ([4]; in vitro, relative to most effective inhibitor in group) was 0.8%. For the same compound, the IC50 ([4]; substrate PE (β-phenylethylamine) 1.9 × 10^-5 M, average of at least 2 independent triplicate experiments) was 4 µM, the “inhibitory effect on mouse brain MAO-B” value (mouse brain MAO-B; i.p., compared with R-2HMP) was “weaker inhibitory effect” and the “Comparison to most effective inhibitor” value (mouse brain MAO-B; in vivo, i.p., relative to R-2HMP) was 5%. For the same compound, the “ED50 value fold higher than that of R-2HMP” value (mouse brain MAO-B; mouse brain MAO-B, i.p.) was 20 fold, the ED50 (mouse brain MAO-B; mouse, ip, 2 h, read-out: IC50 (mg/Kg) (MAO-B, in vivo)) was 4 mg/kg and the “SOD1 gene expression” value (SOD1 mRNA, PC12 cells [5]; PC12 cells) was “stimulate SOD1 gene expression”. The SOD1 mRNA level, % of control at 1 µM (SOD1 mRNA, PC12 cells [5]; Rattus norvegicus, PC-12, 1 μM, 24 hours, Mean ± SD (n = 4), **p < 0.01, control 100 ± 20) was 184 ± 41%, the “LNGFR mRNA” value (LNGFR mRNA, PC12 cells; PC12 cells) was “downregulated LNGFR mRNA” and the mrna remaining at 1 µM (LNGFR mRNA, PC12 cells; Rattus norvegicus, PC-12, 1 μM, 24 hours, Mean ± SD (n = 4), **p < 0.01, control 100 ± 5.4) was 68.8 ± 16.4%. The “prevention of kainic acid-induced neuronal damage” value (hippocampal CA1 neurons) was “capable of preventing kainic acid-induced neuronal damage”.

In the case of `CN[C@@H](C)Cc1ccccc1` [methamphetamine], the neurotoxicity [1] is listed as “neurotoxic even at quite low concentrations”.

For `Nc1ccn([C@@H]2O[C@H](CO)[C@@H](O)[C@@H]2O)c(=O)n1` [Ara C, cytosine arabinoside], the MCC at 24 h (in vitro) was over 150 µM and the “Percent Apoptotic Nuclei (Ara C alone)” value ([6]; Ara C 100 μM, mean ± sem of 4 cultures) was 14.6 ± 0.9%.

With `C=C(C)[C@H]1CN[C@H](C(=O)O)[C@H]1CC(=O)O` [Kainate, kainic acid] the “HSP70 (Kainate alone)” value (HSP70; [11]) was 10.8 ± 3.1 and the “Delayed c-Fos (Kainate alone)” value (c-Fos; [11]) was 18.0 ± 4.5.

In the case of `C#CCN(C)[C@H](C)Cc1ccccc1` [R-deprenyl], the “blocking of Ara C induced apoptosis” value ([6]; 10^-7 M (FIG. 1c)) is listed as “completely blocked”, the “SOD1 mRNA induction (previous findings)” value (SOD1 mRNA, PC12 cells [2]) is listed as “can induce SOD1 mRNA in a dose dependent manner” and the “effect in Parkinson's disease” value (Parkinson's disease; adjuvant to L-dopa) is listed as “effective adjuvant to L-dopa”. For the same compound, the “onset of symptoms in Parkinson's disease” value (Parkinson's disease; early otherwise untreated cases, administered alone) was “delay onset of symptoms”, the “prevention of apoptosis in PC12 cells” value (PC12 cells) was “can prevent apoptosis” and the “concentrations required to prevent apoptosis versus minimum necessary for MAO-B inhibition” value (damaged neurons) was “at least an order of magnitude lower”. The “clinical condition of Alzheimer patients” value (Alzheimer's disease) was “improved the clinical condition of some Alzheimer patients”, the “symptoms of attention deficit disorder” value (Tourette's syndrome) was “improved” and the “life span and sexual activity” value [7] was “prolong life span and sexual activity”. The “cytotoxicity of dopamine towards SH-SY5Y cells” value [8] was “enhance the cytotoxicity of dopamine”.
